{"source": "ChEMBL document CHEMBL3217756", "about": "“Biological and computational evaluation of an oxadiazole derivative (MD77) as a new lead for direct STAT3 inhibitors” (Medchemcomm, 2012)", "tested_on": "NCI-H522", "assay": "Cytotoxicity against human NCI-H522 cells after 48 hrs by sulforhodamine B assay", "assay_type": "functional", "details": "NCI-H522, 48 h", "data": [{"molecule": "O=C(Nc1nonc1-c1ccc(Cl)cc1)c1ccc(C(F)(F)F)cc1", "values": [{"measurement": "GI50", "setting": "read-out: GI50", "value": 2.07, "unit": "µM"}, {"measurement": "CC50", "setting": "read-out: LC50 (the source's name)", "value": "> 100", "unit": "µM"}, {"measurement": "TGI", "setting": "read-out: TGI", "value": 7.12, "unit": "µM"}, {"measurement": "GI50", "setting": "read-out: pGI50 (converted)", "value": 2.09, "unit": "µM"}, {"measurement": "CC50", "setting": "read-out: pLC50 (the source's name) (converted)", "value": "> 100", "unit": "µM"}, {"measurement": "TGI", "setting": "read-out: pTGI (converted)", "value": 7.08, "unit": "µM"}]}]}
